Data published in PMC10794144, “A novel antibiotic class targeting the lipopolysaccharide transporter” (Nature, 2024).
Values after ≈ are worked out from the molar mass of the structure shown. Like-named read-outs stand apart in the source and are kept apart here.

How the values were obtained:
Aqueous solubility = assay type: physicochemical; settings: pH 1–9
A. baumannii [1] = experiment: Bacterial phenotypic fingerprint profiling; assay type: cell-based, Acinetobacter baumannii; settings: random forest model
Protocol: Sample preparation and analysis was conducted as previously described[26] for A. baumannii, with the generated and analysed dataset consisting of three independent experiments, n = 3, as the only modification to the protocol.
For the random forest analysis data proximity analysis from 4x and 8x LOED are pooled and the number of datapoints are reduced by down sampling to be equal for all reference conditions the maximal projection of the analysis. b, In the right panel an out-of-bag validation of the random forest classification model is indicated for the reference compounds. […] The degree of frequency of matching prediction correspond to the length of the individual bar segment, where a longer segment represents a higher similarity. […] Source Data

[2] = Five-day repeat dose tolerability study; assay type: in vivo, rat; settings: for Clinical observations: male Wistar rats, n = 4; for Clinical chemistry / Coagulation / Haematology: 5 days
Protocol: Assessment of tolerability was based on mortality, in-life observations, body weight, food consumption and clinical pathology during the in-life phase. Moreover, gross pathology and histopathology were performed at unscheduled or scheduled euthanasia on day 6.

A. baumannii [3] = experiment: MIC, broth microdilution in CAMHB supplemented with human serum, read at 100% growth inhibition; assay type: cell-based, Acinetobacter baumannii
Protocol: MIC determinations were performed using the broth microdilution method and in line with CLSI guidelines M07 and M100 (refs. [37],[38]). Bacterial inocula were prepared by diluting a 0.5 McFarland suspension in CAMHB or lysogeny broth (LB) specifically for A. baylyi isolates. […] MIC values of all of the tested antibiotics were read as the lowest compound concentration inhibiting bacterial growth by naked eye or beyond which the OD600 ceased to decrease.

## CN1C(=O)[C@H](CCCCN)NC(=O)[C@H](CCCN)NCc2cccnc2Sc2cccc(-c3ccc(C(=O)O)cc3)c2CNC(=O)[C@@H]1Cc1c[nH]c2ccccc12 [zosurabalpin]
Aqueous solubility
  aqueous solubility: > 100 mg/mL
A. baumannii [1]
  Similarity towards RO7202110: > 70%
[2]; 0.6 mg/kg slow IV once daily for 5 days
  Clinical observations: Transiently discolored tail after dosing
[2]; 6 mg/kg slow IV once daily for 5 days
  Clinical observations: Transiently discolored tail after dosing, body weight loss
[2]; rats, 0.6 mg/kg IV
  Clinical chemistry: No relevant changes
  Coagulation: No change
  Haematology: No change
[2]; rats, 6 mg/kg IV
  Clinical chemistry: Minimally increased BUN, creatine. Minimally decreased phosphorus
  Coagulation: No change
  Haematology: No change
[2]; rats, slow IV once daily for 5 days
  MTD: 6 mg/kg
A. baumannii [3]; 129 clinical isolates
  MIC range: ≤0.016 to 4 µg/mL
A. baumannii [3]; ACC01073, CAMHB + 20% HS
  MIC: 2 µg/mL
A. baumannii [3]; Acinetobacter baumannii, ACC00445, CAMHB + 20% HS, read-out: MIC
  MIC: 0.25 µg/mL
A. baumannii [3]; Acinetobacter baumannii, ACC00535, CAMHB + 20% HS, read-out: MIC
  MIC: 0.12 µg/mL
A. baumannii [3]; Acinetobacter baumannii, ACC01073, CAMHB + 20% HS, read-out: MIC
  MIC: 2 µg/mL
A. baumannii [3]; Acinetobacter baumannii, ACC01077, CAMHB + 20% HS, read-out: MIC
  MIC: 0.25 µg/mL
A. baumannii [3]; Acinetobacter baumannii, ACC01085 / AR0307, CAMHB + 20% HS, read-out: MIC
  MIC: 0.5 µg/mL
A. baumannii [3]; Acinetobacter baumannii, ATCC17978, ATCC 17978, CAMHB + 20% HS, read-out: MIC
  MIC: 0.12 µg/mL
A. baumannii [3]; Acinetobacter baumannii, ATCC19606, ATCC 19606, CAMHB + 20% HS, read-out: MIC
  MIC: 0.5 µg/mL
A. baumannii [3]; Acinetobacter baumannii, ATCCBAA747, ATCC BAA-747, CAMHB + 20% HS, read-out: MIC
  MIC: ≤ 0.06 µg/mL
A. baumannii [3]; Acinetobacter baumannii, ROB08701, 129-isolate panel, 20% HS, read-out: MIC
  MIC: 0.06 µg/mL (≈ 0.0759 µM)
A. baumannii [3]; Acinetobacter baumannii, ROB08701, CAMHB + 20% HS, read-out: MIC
  MIC: ≤ 0.06 µg/mL
A. baumannii [3]; Acinetobacter baumannii, ROB08702, 129-isolate panel, 20% HS, read-out: MIC
  MIC: 0.125 µg/mL (≈ 0.158 µM)
A. baumannii [3]; Acinetobacter baumannii, ROB08702, CAMHB + 20% HS, read-out: MIC
  MIC: 0.12 µg/mL
A. baumannii [3]; Acinetobacter baumannii, ROB08703, 129-isolate panel, 20% HS, read-out: MIC
  MIC: 0.5 µg/mL (≈ 0.632 µM)
A. baumannii [3]; Acinetobacter baumannii, ROB08703, CAMHB + 20% HS, read-out: MIC
  MIC: 2 µg/mL
A. baumannii [3]; Acinetobacter baumannii, ROB08704, 129-isolate panel, 20% HS, read-out: MIC
  MIC: 0.25 µg/mL (≈ 0.316 µM)
A. baumannii [3]; Acinetobacter baumannii, ROB08704, CAMHB + 20% HS, read-out: MIC
  MIC: 0.25 µg/mL
A. baumannii [3]; Acinetobacter baumannii, ROB08705, 129-isolate panel, 20% HS, read-out: MIC
  MIC: 0.06 µg/mL (≈ 0.0759 µM)
A. baumannii [3]; Acinetobacter baumannii, ROB08705, CAMHB + 20% HS, read-out: MIC
  MIC: 0.25 µg/mL
A. baumannii [3]; Acinetobacter baumannii, ROB08706, 129-isolate panel, 20% HS, read-out: MIC
  MIC: 0.125 µg/mL (≈ 0.158 µM)
A. baumannii [3]; Acinetobacter baumannii, ROB08706, CAMHB + 20% HS, read-out: MIC
  MIC: 1 µg/mL
A. baumannii [3]; Acinetobacter baumannii, ROB08707, 129-isolate panel, 20% HS, read-out: MIC
  MIC: 0.03 µg/mL (≈ 0.0379 µM)
A. baumannii [3]; Acinetobacter baumannii, ROB08707, CAMHB + 20% HS, read-out: MIC
  MIC: ≤ 0.06 µg/mL
A. baumannii [3]; Acinetobacter baumannii, ROB08708, 129-isolate panel, 20% HS, read-out: MIC
  MIC: 0.125 µg/mL (≈ 0.158 µM)
A. baumannii [3]; Acinetobacter baumannii, ROB08708, CAMHB + 20% HS, read-out: MIC
  MIC: 0.25 µg/mL
A. baumannii [3]; Acinetobacter baumannii, ROB08709, 129-isolate panel, 20% HS, read-out: MIC
  MIC: 0.03 µg/mL (≈ 0.0379 µM)
A. baumannii [3]; Acinetobacter baumannii, ROB08709, CAMHB + 20% HS, read-out: MIC
  MIC: ≤ 0.06 µg/mL
A. baumannii [3]; Acinetobacter baumannii, ROB08710, 129-isolate panel, 20% HS, read-out: MIC
  MIC: 0.125 µg/mL (≈ 0.158 µM)
A. baumannii [3]; Acinetobacter baumannii, ROB08710, CAMHB + 20% HS, read-out: MIC
  MIC: 0.12 µg/mL
A. baumannii [3]; Acinetobacter baumannii, ROB08961 (LpxM NS), 20% HS, read-out: MIC
  MIC: 4 µg/mL (≈ 5.06 µM)
A. baumannii [3]; Acinetobacter baumannii, ROB08979 (LptF R322L), 20% HS, read-out: MIC
  MIC: 8 µg/mL (≈ 10.1 µM)
A. baumannii [3]; Acinetobacter baumannii, ROB08982 (lpxM ISAba1), 20% HS, read-out: MIC
  MIC: 4 µg/mL (≈ 5.06 µM)
A. baumannii [3]; Acinetobacter baumannii, ROB08985 (LpxM NS), 20% HS, read-out: MIC
  MIC: 4 µg/mL (≈ 5.06 µM)
A. baumannii [3]; Acinetobacter baumannii, ROB08997 (LptF I323K), 20% HS, read-out: MIC
  MIC: 16 µg/mL (≈ 20.2 µM)
A. baumannii [3]; Acinetobacter baumannii, ROB08998 (AdeR A91V), 20% HS, read-out: MIC
  MIC: 8 µg/mL (≈ 10.1 µM)
A. baumannii [3]; Acinetobacter baumannii, ROB09000 (lpxM ISAba1), 20% HS, read-out: MIC
  MIC: 8 µg/mL (≈ 10.1 µM)
A. baumannii [3]; Acinetobacter baumannii, ROB21530 (LptF W271S), 20% HS, read-out: MIC
  MIC: 16 µg/mL (≈ 20.2 µM)
A. baumannii [3]; Acinetobacter baumannii, ROB21531 (LptG G40D), 20% HS, read-out: MIC
  MIC: 8 µg/mL (≈ 10.1 µM)
A. baumannii [3]; Acinetobacter baumannii, ROB21532 (LptF R322C), 20% HS, read-out: MIC
  MIC: 64 µg/mL (≈ 80.9 µM)
A. baumannii [3]; Acinetobacter baumannii, ROB21533 (LptF I317L), 20% HS, read-out: MIC
  MIC: 64 µg/mL (≈ 80.9 µM)
A. baumannii [3]; Acinetobacter baumannii, ROB23370 (adeS ISAba1), 20% HS, read-out: MIC
  MIC: 4 µg/mL (≈ 5.06 µM)
A. baumannii [3]; Acinetobacter baumannii, ROB23371 (AdeS R152K), 20% HS, read-out: MIC
  MIC: 4 µg/mL (≈ 5.06 µM)
A. baumannii [3]; Acinetobacter baumannii, ROB23373 (AdeS G318S), 20% HS, read-out: MIC
  MIC: 2 µg/mL (≈ 2.53 µM)
